Measurements from PubChem BioAssay (NCI).
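Five concentrations, 48 hours, 96-well plates. Definition used: TGI = concentration required for complete inhibition of growth.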

Key:
Assay in all cases: growth of human tumour cells (NCI), 48 h
786-0 renal = test system: 786-0 renal
A498 renal = test system: A498 renal
A549 NSCLC = test system: A549 NSCLC
ACHN renal = test system: ACHN renal
CAKI-1 renal = test system: CAKI-1 renal
CCRF-CEM leukemia = test system: CCRF-CEM leukemia
COLO 205 colon = test system: COLO 205 colon
DU-145 prostate = test system: DU-145 prostate
EKVX NSCLC = test system: EKVX NSCLC
HCC-2998 colon = test system: HCC-2998 colon
HCT-15 colon = test system: HCT-15 colon
HL-60(TB) leukemia = test system: HL-60(TB) leukemia
HOP-62 NSCLC = test system: HOP-62 NSCLC
HOP-92 NSCLC = test system: HOP-92 NSCLC
HS 578T breast = test system: HS 578T breast
HT29 colon = test system: HT29 colon
IGROV1 ovarian = test system: IGROV1 ovarian
K-562 leukemia = test system: K-562 leukemia
KM12 colon = test system: KM12 colon
LOX IMVI melanoma = test system: LOX IMVI melanoma
M14 melanoma = test system: M14 melanoma
MALME-3M melanoma = test system: MALME-3M melanoma
MCF7 breast = test system: MCF7 breast
MDA-MB-231 breast = test system: MDA-MB-231 breast
MDA-MB-435 = test system: MDA-MB-435
MDA-N = test system: MDA-N
MOLT-4 leukemia = test system: MOLT-4 leukemia
NCI-H226 lung = test system: NCI-H226 lung
NCI-H23 lung = test system: NCI-H23 lung
NCI-H460 lung = test system: NCI-H460 lung
NCI-H522 lung = test system: NCI-H522 lung
NCI/ADR-RES ovarian = test system: NCI/ADR-RES ovarian
OVCAR-3 ovarian = test system: OVCAR-3 ovarian
OVCAR-4 ovarian = test system: OVCAR-4 ovarian
OVCAR-5 ovarian = test system: OVCAR-5 ovarian
OVCAR-8 ovarian = test system: OVCAR-8 ovarian
PC-3 prostate = test system: PC-3 prostate
RPMI-8226 leukemia = test system: RPMI-8226 leukemia
RXF 393 renal = test system: RXF 393 renal
SF-268 CNS = test system: SF-268 CNS
SF-295 CNS = test system: SF-295 CNS
SF-539 CNS = test system: SF-539 CNS
SK-MEL-2 melanoma = test system: SK-MEL-2 melanoma
SK-MEL-28 melanoma = test system: SK-MEL-28 melanoma
SK-MEL-5 melanoma = test system: SK-MEL-5 melanoma
SK-OV-3 ovarian = test system: SK-OV-3 ovarian
SNB-19 CNS = test system: SNB-19 CNS
SNB-75 CNS = test system: SNB-75 CNS
SR leukemia = test system: SR leukemia
SW-620 colon = test system: SW-620 colon
T-47D breast = test system: T-47D breast
TK-10 renal = test system: TK-10 renal
U251 CNS = test system: U251 CNS
UACC-257 melanoma = test system: UACC-257 melanoma
UACC-62 melanoma = test system: UACC-62 melanoma
UO-31 renal = test system: UO-31 renal
HCT-116 colon = test system: HCT-116 colon
SN12C renal = test system: SN12C renal

In the case of `C[C@@H](c1ccccc1)C(CC#N)[C@H]1CCC[C@]1(O)C#Cc1ccc2c(c1)OCO2` (stereo partly drawn), the TGI (786-0 renal) is reported as 31.3 µM, the TGI (A498 renal) is reported as 34.9 µM and the TGI (A549 NSCLC) is reported as 29.8 µM. It also gave a TGI (ACHN renal) of 30.8 µM, a TGI (CAKI-1 renal) of 30.8 µM and a TGI (CCRF-CEM leukemia) of 35.5 µM. For the same molecule, the TGI (COLO 205 colon) was 33.1 µM, the TGI (DU-145 prostate) was 31.6 µM and the TGI (EKVX NSCLC) was 35.4 µM. It also gave a TGI (HCC-2998 colon) of 30.3 µM, a TGI (HCT-15 colon) of 32.3 µM and a TGI (HL-60(TB) leukemia) of 43.8 µM. For the same molecule, the TGI (HOP-62 NSCLC) was 31.3 µM, the TGI (HOP-92 NSCLC) was 28.4 µM and the TGI (HS 578T breast) was 43.7 µM. The TGI (HT29 colon) was 28.9 µM, the TGI (IGROV1 ovarian) was 33.9 µM and the TGI (K-562 leukemia) was 47.8 µM. For the same molecule, the TGI (KM12 colon) was 31.6 µM, the TGI (LOX IMVI melanoma) was 39.5 µM and the TGI (M14 melanoma) was 30.9 µM. For the same molecule, the TGI (MALME-3M melanoma) was 33.8 µM, the TGI (MCF7 breast) was 41.3 µM and the TGI (MDA-MB-231 breast) was 33.7 µM. The TGI (MDA-MB-435) was 31.3 µM, the TGI (MDA-N) was 30.4 µM and the TGI (MOLT-4 leukemia) was 25.2 µM. It also gave a TGI (NCI-H226 lung) of 33.1 µM, a TGI (NCI-H23 lung) of 35.5 µM and a TGI (NCI-H460 lung) of 31.3 µM. For the same molecule, the TGI (NCI-H522 lung) was 32.4 µM, the TGI (NCI/ADR-RES ovarian) was 33.8 µM and the TGI (OVCAR-3 ovarian) was 29.2 µM. For the same molecule, the TGI (OVCAR-4 ovarian) was 32.6 µM, the TGI (OVCAR-5 ovarian) was 30.8 µM and the TGI (OVCAR-8 ovarian) was 32.7 µM. It also gave a TGI (PC-3 prostate) of 31.1 µM, a TGI (RPMI-8226 leukemia) of 62.5 µM and a TGI (RXF 393 renal) of 28.6 µM. It also gave a TGI (SF-268 CNS) of 38.8 µM, a TGI (SF-295 CNS) of 32.4 µM and a TGI (SF-539 CNS) of 24.1 µM. The TGI (SK-MEL-2 melanoma) was 32.7 µM, the TGI (SK-MEL-28 melanoma) was 30.1 µM and the TGI (SK-MEL-5 melanoma) was 32.8 µM. The TGI (SK-OV-3 ovarian) was 34.6 µM, the TGI (SNB-19 CNS) was 29.8 µM and the TGI (SNB-75 CNS) was 32 µM. It also gave a TGI (SR leukemia) of 46.6 µM, a TGI (SW-620 colon) of 33.2 µM and a TGI (T-47D breast) of 32 µM. For the same molecule, the TGI (TK-10 renal) was 29.6 µM, the TGI (U251 CNS) was 32.1 µM and the TGI (UACC-257 melanoma) was 34.6 µM. For the same molecule, the TGI (UACC-62 melanoma) was 32.7 µM and the TGI (UO-31 renal) was 27.7 µM.

Molecule `CC1=NN(c2cccc(Cl)c2)C2(C1=Cc1ccccc1)C(Cl)C(=O)N2c1nc2ccccc2s1` (stereo not drawn) has a TGI (786-0 renal) of 32.9 µM, a TGI (A498 renal) of 42.8 µM and a TGI (ACHN renal) of 42.4 µM. The TGI (CAKI-1 renal) was 41.9 µM, the TGI (CCRF-CEM leukemia) was greater than 100 µM and the TGI (DU-145 prostate) was 33.2 µM. For the same molecule, the TGI (EKVX NSCLC) was greater than 100 µM, the TGI (HCC-2998 colon) was 31.1 µM and the TGI (HCT-116 colon) was 30.3 µM. It also gave a TGI (HCT-15 colon) of 31.5 µM, a TGI (HL-60(TB) leukemia) of 66.4 µM and a TGI (HOP-62 NSCLC) of 45.3 µM. For the same molecule, the TGI (HOP-92 NSCLC) was 31.6 µM, the TGI (HS 578T breast) was greater than 100 µM and the TGI (HT29 colon) was 40.5 µM. The TGI (IGROV1 ovarian) was 43.7 µM, the TGI (K-562 leukemia) was greater than 100 µM and the TGI (KM12 colon) was 33.7 µM. The TGI (LOX IMVI melanoma) was 64 µM, the TGI (M14 melanoma) was 46.2 µM and the TGI (MCF7 breast) was 70.6 µM. The TGI (MDA-MB-231 breast) was 51.3 µM, the TGI (MDA-MB-435) was 41.1 µM and the TGI (MDA-N) was 41.3 µM. The TGI (MOLT-4 leukemia) was 85.9 µM, the TGI (NCI-H226 lung) was 67.8 µM and the TGI (NCI-H23 lung) was 31.5 µM. The TGI (NCI-H460 lung) was 28.5 µM, the TGI (NCI-H522 lung) was 36 µM and the TGI (NCI/ADR-RES ovarian) was 48.7 µM. For the same molecule, the TGI (OVCAR-3 ovarian) was 40.6 µM, the TGI (OVCAR-4 ovarian) was 64.7 µM and the TGI (OVCAR-5 ovarian) was 55.8 µM. It also gave a TGI (OVCAR-8 ovarian) greater than 100 µM, a TGI (PC-3 prostate) of 37.6 µM and a TGI (RPMI-8226 leukemia) greater than 100 µM. The TGI (RXF 393 renal) was 28 µM, the TGI (SF-268 CNS) was 97.6 µM and the TGI (SF-295 CNS) was 52.3 µM. It also gave a TGI (SF-539 CNS) greater than 100 µM, a TGI (SK-MEL-2 melanoma) of 38.5 µM and a TGI (SK-MEL-28 melanoma) greater than 100 µM. For the same molecule, the TGI (SK-MEL-5 melanoma) was 32.5 µM, the TGI (SK-OV-3 ovarian) was 52.3 µM and the TGI (SR leukemia) was 67.3 µM. It also gave a TGI (SW-620 colon) of 42.4 µM, a TGI (T-47D breast) of 59.9 µM and a TGI (TK-10 renal) greater than 100 µM. The TGI (U251 CNS) was 29.7 µM, the TGI (UACC-257 melanoma) was 74.7 µM and the TGI (UO-31 renal) was 31.9 µM.

For `OC1CCCCCCCCCCC1SCCCCl` (stereo not drawn), the TGI (786-0 renal) was greater than 100 µM, the TGI (A498 renal) was greater than 100 µM and the TGI (A549 NSCLC) was greater than 100 µM. For the same molecule, the TGI (ACHN renal) was greater than 100 µM, the TGI (CAKI-1 renal) was greater than 100 µM and the TGI (COLO 205 colon) was greater than 100 µM. The TGI (DU-145 prostate) was greater than 100 µM, the TGI (EKVX NSCLC) was greater than 100 µM and the TGI (HCC-2998 colon) was greater than 100 µM. For the same molecule, the TGI (HCT-116 colon) was greater than 100 µM, the TGI (HCT-15 colon) was greater than 100 µM and the TGI (HL-60(TB) leukemia) was greater than 100 µM. It also gave a TGI (HOP-62 NSCLC) greater than 100 µM, a TGI (HOP-92 NSCLC) greater than 100 µM and a TGI (HS 578T breast) greater than 100 µM. The TGI (HT29 colon) was greater than 100 µM, the TGI (IGROV1 ovarian) was greater than 100 µM and the TGI (K-562 leukemia) was greater than 100 µM. It also gave a TGI (KM12 colon) greater than 100 µM, a TGI (LOX IMVI melanoma) greater than 100 µM and a TGI (M14 melanoma) greater than 100 µM. The TGI (MALME-3M melanoma) was greater than 100 µM, the TGI (MCF7 breast) was greater than 100 µM and the TGI (MDA-MB-231 breast) was greater than 100 µM. For the same molecule, the TGI (MDA-MB-435) was greater than 100 µM, the TGI (MDA-N) was greater than 100 µM and the TGI (MOLT-4 leukemia) was greater than 100 µM. For the same molecule, the TGI (NCI-H226 lung) was greater than 100 µM, the TGI (NCI-H23 lung) was greater than 100 µM and the TGI (NCI-H460 lung) was greater than 100 µM. For the same molecule, the TGI (NCI-H522 lung) was greater than 100 µM, the TGI (NCI/ADR-RES ovarian) was greater than 100 µM and the TGI (OVCAR-3 ovarian) was greater than 100 µM. For the same molecule, the TGI (OVCAR-4 ovarian) was greater than 100 µM, the TGI (OVCAR-5 ovarian) was greater than 100 µM and the TGI (OVCAR-8 ovarian) was greater than 100 µM. For the same molecule, the TGI (PC-3 prostate) was greater than 100 µM, the TGI (RPMI-8226 leukemia) was greater than 100 µM and the TGI (RXF 393 renal) was greater than 100 µM. For the same molecule, the TGI (SF-268 CNS) was greater than 100 µM, the TGI (SF-295 CNS) was greater than 100 µM and the TGI (SF-539 CNS) was greater than 100 µM. It also gave a TGI (SK-MEL-2 melanoma) greater than 100 µM, a TGI (SK-MEL-28 melanoma) greater than 100 µM and a TGI (SK-MEL-5 melanoma) greater than 100 µM. For the same molecule, the TGI (SK-OV-3 ovarian) was greater than 100 µM, the TGI (SN12C renal) was greater than 100 µM and the TGI (SNB-19 CNS) was greater than 100 µM. The TGI (SR leukemia) was greater than 100 µM, the TGI (SW-620 colon) was greater than 100 µM and the TGI (T-47D breast) was greater than 100 µM. It also gave a TGI (TK-10 renal) greater than 100 µM, a TGI (U251 CNS) greater than 100 µM and a TGI (UACC-257 melanoma) greater than 100 µM. For the same molecule, the TGI (UACC-62 melanoma) was greater than 100 µM and the TGI (UO-31 renal) was greater than 100 µM.
